From PMC11801377, “A uniquely efficacious type of CFTR corrector with complementary mode of action” (Science Advances, 2024)

Legend:
S945L CFTR = biological target: T1, S945L CFTR (Homo sapiens, UniProt P13569, S945L); experiment: CFTR correction (immunoblotting), HEK-TREx, S945L; format: cell-based; details: 48 hours, IDOR-3 2 μM, IDOR-4 0.4 μM, TEZ 2 μM + ELX 0.4 μM
T1 construct: expressed in transfected cells; host or cells: T-REx HEK293
Text: (§1) The human CFTR expressing HEK cell pools with the mutations described below were generated by integrase-mediated homologous recombination of the CFTR sequence into the T-REx HEK293 background (Thermo Fisher Scientific). This expression system allows the tetracycline-inducible expression of genes of interest from one defined insertion site. Parental T-REx-HEK293 cells were cultivated in growth medium: Dulbecco’s modified Eagle’s medium + GlutaMAX-I (#31966, Life Technologies), 10% dialyzed FBS (Gibco, #26400), penicillin (100 U/ml), streptomycin (100 μg/ml), hygromycin B (0.1 mg/ml; Life Technologies), blasticidin (5 μg/ml; Invitrogen, #R210-01), and 0.1 mM nonessential amino acid solution (Invitrogen, #11140-035). Recombinant T-REx-HEK-CFTR cells were generated by lipofectamine transfection (Life Technologies) of plasmids containing mutated versions of CFTR (RefSeq NM_000492) and then cultivated in selection medium [growth medium containing Geneticin (1 mg/ml) (Invitrogen, #10131-027) instead of hygromycin]. The plasmid constructs were synthetized by GENEART (Thermo Fisher Scientific) and designed with the WT CFTR intron 5 to 6 (880 nucleotides) to prevent leaky expression issues during the cloning process in bacteria. […]

L206W CFTR = biological target: T2, L206W CFTR (Homo sapiens, UniProt P13569, L206W); experiment: CFTR correction (immunoblotting), HEK-TREx, L206W; format: cell-based; details: 48 hours, IDOR-3 2 μM, IDOR-4 0.4 μM, TEZ 2 μM + ELX 0.4 μM
T2 construct: expressed in transfected cells; host or cells: T-REx HEK293
Text: as §1

F508del.L15W-CFTR = experiment: Site-directed mutagenesis immunoblotting, HEK-TREx, F508del.L15W-CFTR; format: cell-based, human; details: 40 h, 2 μM
Text: as §1

T1 sequence (P13569 whole entry S945L): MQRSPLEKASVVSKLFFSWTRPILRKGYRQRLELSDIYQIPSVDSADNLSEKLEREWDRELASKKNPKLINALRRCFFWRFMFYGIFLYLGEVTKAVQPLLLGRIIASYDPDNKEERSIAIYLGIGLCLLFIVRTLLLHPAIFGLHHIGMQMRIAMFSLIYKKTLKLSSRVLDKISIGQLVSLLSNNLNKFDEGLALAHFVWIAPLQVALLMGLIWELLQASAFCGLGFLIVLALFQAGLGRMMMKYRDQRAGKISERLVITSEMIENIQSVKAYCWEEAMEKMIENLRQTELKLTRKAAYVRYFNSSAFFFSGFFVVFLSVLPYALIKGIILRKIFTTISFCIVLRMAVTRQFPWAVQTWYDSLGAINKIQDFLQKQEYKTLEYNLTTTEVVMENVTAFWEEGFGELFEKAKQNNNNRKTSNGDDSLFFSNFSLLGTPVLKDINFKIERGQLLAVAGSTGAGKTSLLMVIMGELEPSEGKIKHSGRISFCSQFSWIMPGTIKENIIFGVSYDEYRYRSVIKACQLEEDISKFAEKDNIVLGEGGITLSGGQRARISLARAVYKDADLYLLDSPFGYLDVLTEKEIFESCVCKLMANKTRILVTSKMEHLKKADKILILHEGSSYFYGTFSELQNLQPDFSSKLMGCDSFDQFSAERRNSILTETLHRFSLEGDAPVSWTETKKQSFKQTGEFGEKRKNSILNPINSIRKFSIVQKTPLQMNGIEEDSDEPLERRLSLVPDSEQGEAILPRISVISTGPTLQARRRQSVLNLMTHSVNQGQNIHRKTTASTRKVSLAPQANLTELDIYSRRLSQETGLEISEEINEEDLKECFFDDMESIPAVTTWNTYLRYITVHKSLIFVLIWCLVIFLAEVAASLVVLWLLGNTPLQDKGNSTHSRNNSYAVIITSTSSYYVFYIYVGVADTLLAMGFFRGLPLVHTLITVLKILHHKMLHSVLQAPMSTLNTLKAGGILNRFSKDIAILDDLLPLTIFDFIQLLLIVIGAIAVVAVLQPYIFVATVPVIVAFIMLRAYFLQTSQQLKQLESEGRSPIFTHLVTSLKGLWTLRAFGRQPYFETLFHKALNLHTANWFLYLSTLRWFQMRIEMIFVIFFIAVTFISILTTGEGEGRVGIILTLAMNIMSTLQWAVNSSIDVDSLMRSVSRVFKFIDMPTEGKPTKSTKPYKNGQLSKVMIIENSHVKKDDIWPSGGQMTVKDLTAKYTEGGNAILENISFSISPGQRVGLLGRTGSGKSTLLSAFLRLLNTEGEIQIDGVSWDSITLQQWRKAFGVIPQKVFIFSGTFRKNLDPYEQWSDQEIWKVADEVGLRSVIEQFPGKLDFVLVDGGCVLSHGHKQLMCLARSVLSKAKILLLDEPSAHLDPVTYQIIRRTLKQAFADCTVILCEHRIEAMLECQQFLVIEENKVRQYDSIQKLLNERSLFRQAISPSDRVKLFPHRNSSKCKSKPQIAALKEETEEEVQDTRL
T2 sequence (P13569 whole entry L206W): as the sequence (P13569 whole entry S945L) above, with L206W, L945S counted along it

- correction of S945L (S945L CFTR): highly effective
- correction of L206W (L206W CFTR): highly effective
SMILES: COc1cc(CCNC(=O)C2CC(=O)N(C)C(CC(C)C)C(=O)N3CCCCC3C(=O)NC(Cc3ccccc3)COc3ccc4ncc(F)cc4c3C(=O)N2)on1 (stereo not drawn) [IDOR-3]
- correction by macrocycles versus [LUM + BAM] (F508del.L15W-CFTR): little difference
